# Measurements: patent publication US12157730B2, “Heteroaryl derivative, method for producing same, and pharmaceutical composition comprising same as effective component” (VORONOI INC., priority 2019, dated 2024)
# Target: T1, Ba/F3 cell EGFR Exon20 ins NPH (Homo sapiens, UniProt P00533, INS773NPH)
# T1 construct: expressed in transfected cells; host or cells: Ba/F3
# Test: Ba/F3 cell proliferation suppression, EGFR Exon20 ins NPH
# Type: cell-based
# Conditions: GI50 class; Ba/F3 cell line with NPH inserted at Exon20 of EGFR; 72 hours
# Summary of the method: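 Seed 3000–5000 cells/well; after 24 h add compound (12 conc., 0.3 nM–50 um final); incubate 72 h; add CellTiter-Glo, 10 min room temperature; read luminescence; GI50 from % growth vs control, triplicate.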
row,Ba/F3 (NPH) Activity,Compound
1,A (GI50 < 50 nM),"C=CC(=O)Nc1cc(Nc2cc(N3OCC[C@@H]3c3cccc(F)c3F)ncn2)c(OC)cc1N1CCN(C)C[C@@H]1C [compound 886, N-(5-((6-((R)-3-(2,3-difluorophenyl)isoxazolidine-2-yl)pyrimidine-4-yl)amino)-2-((S)-2,4-dimethylpiperazine-1-yl)-4-methoxyphenyl) acrylamide]"
2,A (GI50 < 50 nM),"C=CC(=O)Nc1cc(Nc2cc(N3OCC[C@@H]3c3cccc(Cl)c3C)ncn2)c(OC)cc1N1CCN(C)CC1 [compound 584, N-(5-((6-((R)-3-(3-chloro-2-methylphenyl)isoxazolidine-2-yl)pyrimidine-4-yl)amino)-4-methoxy-2-(4-methylpiperazine-1-yl)phenyl)acrylamide]"
3,A (GI50 < 50 nM),"C=CC(=O)Nc1cc(Nc2cc(N3OCC[C@@H]3c3ccc(Cl)c(Cl)c3)ncn2)c(OC)cc1N1C[C@H]2C[C@@H]1CO2 [compound 671, N-(2-((1R,4R)-2-oxa-5-azabicyclo[2.2.1]heptane-5-yl)-5-((6-((R)-3-(3,4-dichlorophenyl)isoxazolidine-2-yl)pyrimidine-4-yl)amino)-4-methoxyphenyl) acrylamide]"
4,A (GI50 < 50 nM),"C=CC(=O)Nc1cc(Nc2cc(N3OCC[C@@H]3c3ccc(F)cc3F)ncn2)c(OC)cc1N1CCC(N2CCN(C3CCCC3)CC2)CC1 [Example 205, N-(2-(4-(4-cyclopentylpiperazine-1-yl)piperidine-1-yl)-5-((6-((R)-3-(2,4-difluorophenyl)isoxazolidine-2-yl)pyrimidine-4-yl)amino)-4-methoxyphenyl) acrylamide]"
5,A (GI50 < 50 nM),"C=CC(=O)Nc1cc(Nc2cc(N3OCC[C@@H]3Cc3ccccc3)ncn2)c(OC)cc1N1CCN(CC2CC2)CC1 [compound 959, N-(5-((6-((S)-3-benzylisoxazolidine-2-yl)pyrimidine-4-yl)amino)-2-(4-(cyclopropylmethyl)piperazine-1-yl)-4-methoxyphenyl) acrylamide]"
6,A (GI50 < 50 nM),"C=CC(=O)Nc1cc(Nc2cc(N3OCC[C@@H]3c3ccc(F)c(F)c3F)ncn2)c(OC)cc1N1CCN(C)CC1 [compound 572, N-(4-methoxy-2-(4-methylpiperazine-1-yl)-5-((6-((R)-3-(2,3,4-trifluorophenyl)isoxazolidine-2-yl)pyrimidine-4-yl)amino)phenyl) acrylamide]"
7,A (GI50 < 50 nM),"C=CC(=O)Nc1cc(Nc2cc(N3OCC[C@@H]3c3cccc(F)c3)ncn2)c(OC)cc1N1CCC(N2C[C@@H]3C[C@H]2CN3CC)CC1 [compound 835, N-(2-(4-((1S,4S)-5-ethyl-2,5-diazabicyclo[2.2.1]heptane-2-yl)piperidine-1-yl)-5-((6-((R)-3-(3-fluorophenyl)isoxazolidine-2-yl)pyrimidine-4-yl)amino)-4-methoxyphenyl) acrylamide]"
8,A (GI50 < 50 nM),"C=CC(=O)Nc1cc(Nc2cc(N3OCC[C@@H]3c3ccc(F)cc3)ncn2)c(OC)cc1N1CCC(N2CCN(C3COC3)CC2)CC1 [Example 85, N-(5-((6-((R)-3-(4-fluorophenyl)isoxazolidine-2-yl)pyrimidine-4-yl)amino)-4-methoxy-2-(4-(4-(oxetane-3-yl)piperazine-1-yl)piperidine-1-yl)phenyl) acrylamide]"
9,A (GI50 < 50 nM),"C=CC(=O)Nc1cc(Nc2cc(N3OCC[C@@H]3c3cc(F)ccc3F)ncn2)c(OC)cc1N1C[C@H]2CCN(C)[C@H]2C1 [compound 892, N-(5-((6-((R)-3-(2,5-difluorophenyl)isoxazolidine-2-yl)pyrimidine-4-yl)amino)-4-methoxy-2-((3aR,6aR)-1-methylhexahydropyrrolo [3,4-b]pyrrole-5(1H)-yl)phenyl) acrylamide]"
10,A (GI50 < 50 nM),"C=CC(=O)Nc1cc(Nc2cc(N3OCC[C@@H]3c3ccc(F)cc3F)ncn2)c(OC)cc1N1C[C@H]2C[C@@H]1CN2CC [compound 385, N-(5-((6-((R)-3-(2,4-difluorophenyl)isoxazolidine-2-yl)pyrimidine-4-yl)amino)-2-((1R,4R)-5-ethyl-2,5-diazabicyclo[2.2.1]heptane-2-yl)-4-methoxyphenyl) acrylamide]"
11,A (GI50 < 50 nM),"C=CC(=O)Nc1cc(Nc2cc(N3OCC[C@@H]3c3ccc(Cl)c(Cl)c3)ncn2)c(OC)cc1N1CCC(N2CCN(C3COC3)CC2)CC1 [compound 931, N-(5-((6-((R)-3-(3,4-dichlorophenyl)isoxazolidine-2-yl)pyrimidine-4-yl)amino)-4-methoxy-2-(4-(4-(oxetane-3-yl)piperazine-1-yl)piperidine-1-yl)phenyl) acrylamide]"
12,B (50 nM ≤ GI50 < 500 nM),"C=CC(=O)Nc1cc(Nc2cc(N3OCC[C@@H]3c3cccc(C#N)c3)ncn2)c(OC)cc1N1CCN(C)CC1 [compound 393, N-(5-((6-((R)-3-(3-cyanophenyl)isoxazolidine-2-yl)pyrimidine-4-yl)amino)-4-methoxy-2-(4-methylpiperazine-1-yl)phenyl)acrylamide]"
13,A (GI50 < 50 nM),"C=CC(=O)Nc1cc(Nc2cc(N3OCC[C@@H]3c3cccc(F)c3F)ncn2)c(OC)cc1N1CCO[C@H](C)C1 [compound 889, N-(5-((6-((R)-3-(2,3-difluorophenyl)isoxazolidine-2-yl)pyrimidine-4-yl)amino)-4-methoxy-2-((R)-2-methylmorpholino)phenyl)acrylamide]"
14,A (GI50 < 50 nM),"C=CC(=O)Nc1cc(Nc2cc(N3OCC[C@@H]3Cc3cccc(Cl)c3Cl)ncn2)c(OC)cc1N1CCC(N2CCN(C3CC3)CC2)CC1 [compound 1009, N-(2-(4-(4-cyclopropylpiperazine-1-yl)piperidine-1-yl)-5-((6-((S)-3-(2,3-dichlorobenzyl)isoxazolidine-2-yl)pyrimidine-4-yl)amino)-4-methoxyphenyl) acrylamide]"
15,B (50 nM ≤ GI50 < 500 nM),"C=CC(=O)Nc1cc(Nc2cc(N3OCC[C@@H]3c3cc(F)cc(F)c3)ncn2)c(OC)cc1N1CC(N2CCN(C3CC3)CC2)C1 [compound 588, N-(2-(3-(4-cyclopropylpiperazine-1-yl)azetidine-1-yl)-5-((6-((R)-3-(3,5-difluorophenyl)isoxazolidine-2-yl)pyrimidine-4-yl)amino)-4-methoxyphenyl) acrylamide]"
16,B (50 nM ≤ GI50 < 500 nM),"C=CC(=O)Nc1cc(Nc2cc(N3OCC[C@@H]3c3ccc4ccccc4c3)ncn2)c(OC)cc1N1CCC(N2CCOCC2)CC1 [compound 555, N-(4-methoxy-2-(4-morpholinopiperidine-1-yl)-5-((6-((R)-3-(naphthalene-2-yl)isoxazolidine-2-yl)pyrimidine-4-yl)amino)phenyl)acrylamide]"
17,B (50 nM ≤ GI50 < 500 nM),"C=CC(=O)Nc1cc(Nc2cc(N3OCC[C@@H]3c3ccccc3)ncn2)c(OC)cc1N1C2CC1CN(C)C2 [Example 35, N-(4-methoxy-2-(3-methyl-3,6-diazabicyclo[3.1.1]heptane-6-yl)-5-((6-((R)-3-phenylisoxazolidine-2-yl)pyrimidine-4-yl)amino)phenyl) acrylamide]"
18,B (50 nM ≤ GI50 < 500 nM),"C=CC(=O)Nc1cc(Nc2cc(N3OCC[C@@H]3c3ccc(Cl)cc3)ncn2)c(OC)cc1N1CCC(N2CCC(N(C)C)CC2)CC1 [compound 808, N-(5-((6-((R)-3-(4-chlorophenyl)isoxazolidine-2-yl)pyrimidine-4-yl)amino)-2-(4-(dimethylamino)-[1,4'-bipiperidine]-1'-yl)-4-methoxyphenyl) acrylamide]"
19,A (GI50 < 50 nM),"C=CC(=O)Nc1cc(Nc2cc(N3OCC[C@@H]3c3cc(F)cc(F)c3)ncn2)c(OC)cc1N1CCC(N2CCN(C(C)CC)CC2)CC1 (stereo partly drawn) [compound 894, N-(2-(4-(4-(sec-butyl)piperazine-1-yl)piperidine-1-yl)-5-((6-((R)-3-(3,5-difluorophenyl)isoxazolidine-2-yl)pyrimidine-4-yl)amino)-4-methoxyphenyl) acrylamide]"
20,A (GI50 < 50 nM),"C=CCN1CCN(C2CCN(c3cc(OC)c(Nc4cc(N5OCC[C@@H]5c5cc(F)cc(F)c5)ncn4)cc3NC(=O)C=C)CC2)CC1 [Example 87, N-(2-(4-(4-allylpiperazine-1-yl)piperidine-1-yl)-5-((6-((R)-3-(3,5-difluorophenyl)isoxazolidine-2-yl)pyrimidine-4-yl)amino)-4-methoxyphenyl) acrylamide]"
21,A (GI50 < 50 nM),"C=CC(=O)Nc1cc(Nc2cc(N3OCC[C@@H]3c3cccc(C#N)c3)ncn2)c(OC)cc1N1CCC(N2CCN(C3CC3)[C@H](C)C2)CC1 [Example 126, N-(5-((6-((R)-3-(3-cyanophenyl)isoxazolidine-2-yl)pyrimidine-4-yl)amino)-2-(4-((R)-4-cyclopropyl-3-methylpiperazine-1-yl)piperidine-1-yl)-4-methoxyphenyl) acrylamide]"
22,A (GI50 < 50 nM),"C=CC(=O)Nc1cc(Nc2cc(N3OCC[C@@H]3c3cccc(Cl)c3)ncn2)c(OC)cc1N1CCC(N2C[C@H]3C[C@@H]2CO3)CC1 [compound 472, N-(2-(4-((1R,4R)-2-oxa-5-azabicyclo[2.2.1]heptane-5-yl)piperidine-1-yl)-5-((6-((R)-3-(3-chlorophenyl)isoxazolidine-2-yl)pyrimidine-4-yl)amino)-4-methoxyphenyl) acrylamide]"
23,A (GI50 < 50 nM),"C=CC(=O)Nc1cc(Nc2cc(N3OCC[C@@H]3c3cc(F)cc(Cl)c3)ncn2)c(OC)cc1N1CCC(N2C[C@H]3C[C@@H]2CO3)CC1 [compound 590, N-(2-(4-((1R,4R)-2-oxa-5-azabicyclo[2.2.1]heptane-5-yl)piperidine-1-yl)-5-((6-((R)-3-(3-chloro-5-fluorophenyl)isoxazolidine-2-yl)pyrimidine-4-yl)amino)-4-methoxyphenyl) acrylamide]"
